One assay has as its system L5178Y/S. Description: Anti-cancer activity potentiating action, colony formation, mouse leukemia sensitive cells (table head prints PLC/S). The class given is cell-based. The following applies: head prints PLC/S (parent cells); for IC50: Mus musculus, L5178Y. The protocol: (§1) The anti-cancer activity potentiating action of the malate of formula (I) was examined using Chinese hamster cells (sensitive cell line V79/S and ADM-resistant cell line V79/ADM), human hepatoma cells (sensitive cell line PLC/S and colchicin-resistant cell line PLC/Col) and mouse leukemia cells (sensitive cell line L5178Y/S) and aclarubicin-resistant cell line L5178Y/ACR).
(§2) Of these tumor cells, the sensitive cells (400 cells) and the resistant cells (600 cells) were each incubated in 10 ml of Eagle's MEM medium containing 10% bovine serum for 24 hours, and then each of the test drugs indicated in Table 6 was added. Thereafter, the incubation was carried out for 9 days. The concentration (IC50 : micrograms/ml) of the test drug required to inhibit 50% of the colony formation (proliferation) of the tumor cells was calculated.
(§3) Adriamycin (ADM) and aclarubicin (ACR) as anti-cancer agents were used in combination with 20 micrograms/ml of the malate of formula (I).

The subject of assay [1] is V79/S. As to the kind of experiment: Anti-cancer activity potentiating action, colony formation, V79/S parent cells (A-III). It counts as cell-based, Chinese hamster. The conditions noted are these: for IC50: Cricetulus griseus. The protocol: as §1, §2
(§4) (A) Chinese hamster V79 cells
(§5) As anti-cancer agents, there were used adriamycin (ADM), aclarubicin (ACR), actinomycin D (ACD), 5-fluorouracil (5-FU), cytarabin (Ara-C), cisplatin (CDDP), methotrexate (MTX), mitomycin C (MMC), nimustine (ACNU), mitoxantrone, etoposide ([…]), vincristine (VCR), bleomycin (BLM) and peplomycin (PEP). For the sensitive cells, the anti-cancer agents were used in combination with 10 micrograms/ml of the malate of formula (I), and for the resistant cells, the anti-cancer agents were used in combination with the malate of formula (I) 3 micrograms/ml, 5 micrograms/ml, and 10 micrograms/ ml.

Assay [2] concerns V79/S. As to the kind of experiment: Colony formation (proliferation) inhibition, sensitive Chinese hamster cells (A-I Part 1). It counts as cell-based. The protocol: (§6) Sensitive cell line V79/S and ADM-resistant cell line V79/ADM of the Chinese hamster were used, and sensitive cell line PLC/S and cholchicin-resistant cell line PLC/Col, as human hepatoma cells.
(§7) The sensitive cell lines (400 cells) or the resistant cell lines (600 cells) were each incubated for 24 hours in 10 ml of Eagle's MEM medium containing 10% bovine serum. Each of the drugs indicated in Table 1 below was dissolved in ethanol, and 50 microliters of the resulting solution was added to the medium. The incubation was further carried out for 9 days. The concentration of the drug which inhibits 50% of the colony formation (proliferation) of the tumor cells was calculated.
(§8) V79/S and V79/ADM were tested by using all of the drugs described above, but PLC/S and PLC/Col were tested by using only the malate of formula (I), adriamycin and peplomycin.
(§9) The concentrations (micrograms/ml) required to inhibit 50% of the proliferation of the tumor cells, expressed by IC50, are shown in Table 1.

In assay [3] the test system is clinically isolated human cancer cells (lung adenocarcinoma, lung squamous cell carcinoma, osteosarcoma, ovarian carcinoma). Description: Anti-tumor activity on clinically isolated human cancer cells, morphological changes (A-I Part 2). The class given is cell-based. The following applies: 0.2 μg/ml.
Protocol: Lung adenocarcinoma, lung squamous cell carcinoma, osteosarcoma and ovarian carcinoma were selected as clinically isolated human cancer cells, and the anti-tumor activities of various drugs were examined. Specifically, various tumor tissues were individually cut to thin pieces by a razor, and by washing in saline by using a 1 mm mesh, the connective tissues were removed. The resulting solution was centrifuged at 1000 rpm for 1 minute to remove necrotizing substances. Washing with saline gave tumor cells.
They were incubated at 37° for 4 to 8 hours. Thereafter, pumping was carried out to disperse the tissue pieces. Then, centrifugation at 1000 rpm for 5 minutes, cell coating and Giemsa staining were performed. The anti-tumor activity of each drug was examined on the basis of observation of the morphological changes of the tumor cells under a microscope.
The experiment was conducted on two examples of each tumor cells (total 8 examples).
Assay [4] relates to V79/ADM. Description: Anti-cancer activity potentiating action, colony formation, V79/ADM resistant cells (A-III). The class given is cell-based, Chinese hamster. The conditions noted are these: for IC50: Cricetulus griseus. The protocol: as §1, §2, §4, §5
In assay [5] the test system is V79/ADM. Description: Colony formation (proliferation) inhibition, ADM-resistant Chinese hamster cells (A-I Part 1). The class given is cell-based. The protocol:
as §6, §7, §8, §9

The test system of the next assay is L5178Y/ACR. Description: Anti-cancer activity potentiating action, colony formation, aclarubicin-resistant mouse leukemia cells (table head prints PLC/ACR). It counts as cell-based. The following applies: for IC50: Mus musculus, L5178Y. The protocol:
as §1, §2, §3

A further assay deals with Meth-A. Description: Tumor proliferation inhibiting activity, Meth-A (A-IV). The class given is in vivo, BALB/c rats. The following applies: MMC 1.0 mg/kg/day, days 1-5. The protocol:
Female BALB/c rats (7 weeks old), 8 per group, were used. Tumor cells (Meth-A) induced by methyl cholanthrene were transplanted intraperitoneally to the rats, and then the malate of formula (I) was administered intraperitoneally to the rats. The proliferation inhibiting activity of the malate was examined by comparing the weight of the tumor cells with that of the tumor cells in the non-treated control group.
The dose of the malate of formula (I) was 1.25, 2.5, 5.0, and 10.0 mg/kg/day. Mitomycin C (MMC) was administered as another anti-cancer agent. The weight of the tumor cells was measured, and the proliferation inhibiting activity was determined.
The weight (g) of the tumor with respect to that of the tumor in the control group (T/C, %) after 16 days from the transplantation of the tumor cells, and the number of surviving rats after 16 days are shown in Table 8.

Assay [6] deals with human tumor cells (muscle fibrosarcoma HT-1080). As to the kind of experiment: Anti-cancer activity potentiating action in nude mice with HT-1080 (A-VI). The class given is in vivo, human tumor in ICR nude mice. The conditions noted are these: MMC 3 mg/kg, days 5, 10, 15, 20; day 36. The protocol: ICR nude mice, 6 per group, were used, and the experiment was conducted substantially in accordance with the procedure described in A-V.
As tumor cells, human tumor cells (muscle fibrosarcoma HT-1080) were used, and 5 days after the transplantation, drug administration was started.
The administration was further performed every 5 days from the day of starting the administration, and the total number of administrations was therefore 4.
Mitomycin C (MMC) was tested by the same way as above.
Thirty-six days after the transplantation of the tumor, a tumor mass was extracted and its weight was measured. From the difference of the weight of the tumor from the non-treated control group, the tumor growth inhibition ratio (%) was calculated.

Assay [7] has as its system PLC/Col. As to the kind of experiment: Anti-cancer activity potentiating action, colony formation, PLC/Col resistant cells (A-III). It counts as cell-based, human. The following applies: PLC/Col; with compound (I) 5 μg/ml. The protocol: as §1, §2
(§10) As anti-cancer agents, adriamycin (ADM) and peplomycin (PEP) were used in combination with the malate of formula (I) (5 micrograms/ml).

The subject of assay [8] is PLC/Col. As to the kind of experiment: Colony formation (proliferation) inhibition, colchicin-resistant human hepatoma cells (A-I Part 1). The class given is cell-based. The conditions noted are these: PLC/Col; 9 days; Table 1. The protocol: as §6, §7, §8, §9
Assay [9] deals with PLC/S. As to the kind of experiment: Anti-cancer activity potentiating action, colony formation, PLC/S parent cells (A-III). The conditions noted are these: PLC/S; with compound (I) 5 μg/ml. It counts as cell-based, human. The protocol: as §1, §2, §10
Assay [10] deals with PLC/S. As to the kind of experiment: Colony formation (proliferation) inhibition, sensitive human hepatoma cells (A-I Part 1). The class given is cell-based. The following applies: PLC/S; 9 days; Table 1. The protocol:
as §6, §7, §8, §9

Setting [11] is: alone, Table 7 lower part, read-out: IC50, anti-cancer agent alone.
The mark [12] stands for this setting: with compound (I) 20 μg/ml, read-out: IC50 in combination with compound (I).
Setting [13] is: read-out: IC50, anti-cancer agent alone.
The mark [14] stands for this setting: read-out: IC50 in combination with compound (I).
Setting [15] is: V79/S, with compound (I) 10 μg/ml.
Where [16] appears, read: V79/ADM, with compound (I) 3 μg/ml.

For orientation: IC50 means the concentration that inhibits the measured activity by half.

Values after ≈ are worked out from the molar mass of the structure shown. Read-outs that look alike come from different tables or passages of the source.

Turning to `CC[C@@]1(O)C[C@H](O[C@H]2C[C@H](N(C)C)[C@H](O[C@H]3C[C@H](O)[C@H](O[C@H]4CCC(=O)[C@H](C)O4)[C@H](C)O3)[C@H](C)O2)c2c(cc3c(c2O)C(=O)c2c(O)cccc2C3=O)[C@H]1C(=O)OC` [ACR, aclarubicin], the IC50 turned out to be 0.019 µg/mL with L5178Y/S (setting [11]); 0.017 µg/mL in the assay with L5178Y/S (setting [12]); 0.037 µg/mL with V79/S [1] (setting [13]); 0.027 µg/mL in the assay with V79/S [1] (setting [14]); 0.037 µg/mL (≈ 0.0456 µM) in the assay on V79/S [2] (Cricetulus griseus, 216 h); 0.27 µg/mL in the assay on V79/ADM [4] (setting [13]). Further, the IC50 with V79/ADM [4] (setting [14]) turned out to be 0.024 µg/mL; with V79/ADM [5] (Cricetulus griseus, 216 h) it was 0.27 µg/mL (≈ 0.333 µM); in the assay on L5178Y/ACR (setting [11]), 0.07 µg/mL; in the assay on L5178Y/ACR (setting [12]), 0.043 µg/mL. Also, the Potentiation activity in the assay on L5178Y/S (with compound (I) 20 μg/ml) is given as 1.0 times; in the assay with V79/S [1] (setting [15]) it was 1.37 times; in the assay with V79/ADM [4] (V79/ADM, with compound (I) 10 μg/ml) it was 11.3 times; with L5178Y/ACR (with compound (I) 20 μg/ml), 1.8 times. For the same molecule, the “Efficacy ratio (rated significant by Fisher's test)” value in assay [3] is 2/8.
Regarding `CO[C@@]12[C@H](COC(N)=O)C3=C(C(=O)C(C)=C(N)C3=O)N1C[C@@H]1N[C@@H]12` [MMC, mitomycin C], in the assay on Meth-A (16 days later), the “Number of surviving animals” value is 8/8. In addition, the “T/C (tumor weight)” value in the assay with Meth-A (day 16) stood at 21%. For the same molecule, the “Tumor weight mean ± S.D.” value in the assay on Meth-A (day 16) was found to be 0.347 ± 0.185 g. The IC50 with V79/S [1] (setting [14]) stood at 0.01 µg/mL; in the assay with V79/S [1] (V79/S, alone, Table 6, read-out: IC50, anti-cancer agent alone), 0.02 µg/mL; with V79/ADM [4] (V79/ADM, alone, Table 6, read-out: IC50, anti-cancer agent alone) it was 0.057 µg/mL; in the assay with V79/ADM [4] (V79/ADM, with compound (I) 5 μg/ml, read-out: IC50 in combination with compound (I)), 0.011 µg/mL. The Potentiation activity with V79/S [1] (setting [15]) stood at 2.0 times; with V79/ADM [4] (V79/ADM, with compound (I) 5 μg/ml), 5.20 times. Besides, the “Tumor growth inhibition ratio” value in [6] is listed as 47.0%. Besides, in assay [6], the Tumor weight came out at 1.92 ± 0.27. Further, in assay [3], the “Efficacy ratio (rated significant by Fisher's test)” value is on record as 0/8.
For the molecule `Cc1c(N)nc([C@H](CC(N)=O)NC[C@H](N)C(N)=O)nc1C(=O)N[C@H](C(=O)N[C@H](C)[C@@H](O)[C@H](C)C(=O)N[C@H](C(=O)NCCc1nc(-c2nc(C(=O)NCCCN[C@@H](C)c3ccccc3)cs2)cs1)[C@@H](C)O)[C@@H](O[C@@H]1O[C@@H](CO)[C@@H](O)[C@H](O)[C@@H]1O[C@H]1O[C@H](CO)[C@@H](O)[C@H](OC(N)=O)[C@@H]1O)c1c[nH]cn1` [PEP, peplomycin], the Potentiation activity is recorded as 6.3 times in the assay with PLC/Col [7], 118 times in the assay with V79/S [1] (setting [15]), 3.0 times in the assay on PLC/S [9] and 30.5 times in the assay with V79/ADM [4] (setting [16]). Moreover, the “IC50, anti-cancer agent alone” value in the assay with V79/S [1] (V79/S, alone, Table 6) is 1.95 µg/mL; in the assay on V79/ADM [4] (V79/ADM, alone, Table 6) it was 0.48 µg/mL. The “IC50 in combination with compound (I)” value stood at 0.0165 µg/mL in the assay on V79/S [1] (setting [15]) and 0.0157 µg/mL in the assay on V79/ADM [4] (setting [16]). For the same molecule, the IC50 in the assay with V79/S [2] (V79/S, 9 days, Table 1) worked out at 1.95 µg/mL (≈ 1.32 µM); in the assay with PLC/Col [8], 0.19 µg/mL (≈ 0.129 µM); with V79/ADM [5] (V79/ADM, 9 days, Table 1), 0.48 µg/mL (≈ 0.326 µM); in the assay with PLC/S [10], 0.24 µg/mL (≈ 0.163 µM).

The values above are taken from patent publication US5004756A, “Anti-cancer activity potentiator” (priority 1988, dated 1991).
